We go through eight compounds from ChEMBL document CHEMBL2086258, “Laxiflorolides A and B, epimeric bishomoditerpene lactones from Isodon eriocalyx” (J Nat Prod, 2012).

Where only a bound is given, the exact number is not on record here.

Common to all, as to assay type: functional, cell-based
One assay has as its system MCF7. The assay is described as follows: Cytotoxicity against human MCF7 cells after 48 hrs by MTT assay. Particulars: MCF7, 48 h. On the technique in general: Tetrazolium assays rely on reduction of a dye to a coloured formazan, in cell work by metabolically active cells.
In a further assay the test system is HL-60. As to the kind of experiment: Cytotoxicity against human HL60 cells after 48 hrs by MTT assay. Particulars: HL-60, 48 h.
The next assay deals with SW480. As to the kind of experiment: Cytotoxicity against human SW480 cells after 48 hrs by MTT assay. The following applies: SW480, 48 h.
A further assay has as its system SMMC-7721. The assay is described as follows: Cytotoxicity against human SMMC7721 cells after 48 hrs by MTT assay. Particulars: SMMC-7721, 48 h.
For another assay, the system named is A549. The assay is described as follows: Cytotoxicity against human A549 cells after 48 hrs by MTT assay. The following applies: A549, 48 h.

Turning to `C=C1[C@@H]2CC[C@H]3[C@]45CO[C@H](CC4=O)C(C)(C)C5=C(O)C(=O)[C@]3(C2)[C@@H]1O` (relative stereo), the IC50 with MCF7 (read-out: IC50) is 12.9 µM; in the assay on MCF7 (read-out: pIC50 (converted)) it was 12.6 µM; in the assay with HL-60 (read-out: IC50), 9.9 µM; in the assay with HL-60 (read-out: pIC50 (converted)), 9.9 µM; in the assay on SW480 (read-out: IC50), 15.4 µM; with SW480 (read-out: pIC50 (converted)), 15.8 µM. The IC50 in the assay on SMMC-7721 (read-out: IC50) is 21.5 µM; with SMMC-7721 (read-out: pIC50 (converted)) it was 20 µM; with A549 (read-out: IC50), 24.9 µM; in the assay on A549 (read-out: pIC50 (converted)), 25.1 µM.
With `C=C1C(=O)[C@]23C[C@H]1CC[C@H]2[C@@]12CO[C@]3(O)[C@@H](O)[C@@H]1C(C)(C)C=CC2=O` [ERIOCALYXIN B], the IC50 in the assay on MCF7 (read-out: IC50) is 0.6 µM; in the assay on MCF7 (read-out: pIC50 (converted)), 0.631 µM; in the assay with HL-60 (read-out: IC50) it was 0.3 µM; in the assay with HL-60 (read-out: pIC50 (converted)) it was 0.316 µM; with SW480 (read-out: IC50), 0.5 µM; in the assay with SW480 (read-out: pIC50 (converted)) it was 0.501 µM. The IC50 in the assay with SMMC-7721 (read-out: IC50) is 0.8 µM; with SMMC-7721 (read-out: pIC50 (converted)), 0.794 µM; in the assay with A549 (read-out: IC50) it was 3.1 µM; in the assay with A549 (read-out: pIC50 (converted)) it was 3.16 µM.
For `C=C(C=O)[C@@H]1CC[C@@H]2[C@@H](C1)C(=O)[C@@H](O)[C@@H]1C(C)(C)[C@H]3CC(=O)[C@@]21CO3` [LAXIFLORIN P], the IC50 in the assay on MCF7 (read-out: IC50) was 3.2 µM; in the assay with MCF7 (read-out: pIC50 (converted)) it was 3.16 µM; in the assay with HL-60 (read-out: IC50), 3.8 µM; in the assay with HL-60 (read-out: pIC50 (converted)) it was 3.98 µM; in the assay on SW480 (read-out: IC50) it was 3.1 µM; with SW480 (read-out: pIC50 (converted)) it was 3.16 µM. Further, the IC50 with SMMC-7721 (read-out: IC50) was 5.6 µM; in the assay on SMMC-7721 (read-out: pIC50 (converted)) it was 5.01 µM; with A549 (read-out: IC50), 11.7 µM; in the assay on A549 (read-out: pIC50 (converted)), 12.6 µM.
As to `CC1(C)[C@H]2[C@H](O)C(=O)[C@@H]3C[C@H](C(=O)O)CC[C@H]3[C@@]23CO[C@@H]1CC3=O` [LAXIFLORIN Q], the IC50 in the assay on MCF7 (read-out: IC50) was more than 40 µM; in the assay on MCF7 (read-out: pIC50 (converted)), more than 39.8 µM; in the assay on HL-60 (read-out: IC50), more than 40 µM; in the assay on HL-60 (read-out: pIC50 (converted)) it was more than 39.8 µM; with SW480 (read-out: IC50), more than 40 µM; in the assay on SW480 (read-out: pIC50 (converted)) it was more than 39.8 µM. Also, the IC50 was more than 40 µM in the assay with SMMC-7721 (read-out: IC50), more than 39.8 µM in the assay on SMMC-7721 (read-out: pIC50 (converted)), more than 40 µM in the assay on A549 (read-out: IC50) and more than 39.8 µM in the assay with A549 (read-out: pIC50 (converted)).
Turning to `C[C@H]1C[C@](O)([C@@H]2CC[C@@H]3[C@@H](C2)C(=O)[C@@H](O)[C@@H]2C(C)(C)[C@H]4CC(=O)[C@@]32CO4)C(=O)O1` [LAXIFLOROLIDE A], the IC50 in the assay on MCF7 (read-out: IC50) is more than 40 µM; in the assay on MCF7 (read-out: pIC50 (converted)), more than 39.8 µM; in the assay with HL-60 (read-out: IC50), more than 40 µM; with HL-60 (read-out: pIC50 (converted)), more than 39.8 µM; in the assay with SW480 (read-out: IC50), more than 40 µM; in the assay on SW480 (read-out: pIC50 (converted)) it was more than 39.8 µM. Also, the IC50 was more than 40 µM in the assay on SMMC-7721 (read-out: IC50), more than 39.8 µM in the assay with SMMC-7721 (read-out: pIC50 (converted)), more than 40 µM with A549 (read-out: IC50) and more than 39.8 µM in the assay on A549 (read-out: pIC50 (converted)).
In the case of `C[C@@H]1C[C@](O)([C@@H]2CC[C@@H]3[C@@H](C2)C(=O)[C@@H](O)[C@@H]2C(C)(C)[C@H]4CC(=O)[C@@]32CO4)C(=O)O1` [LAXIFLOROLIDE B], the IC50 was more than 40 µM in the assay with MCF7 (read-out: IC50); more than 39.8 µM in the assay on MCF7 (read-out: pIC50 (converted)); more than 40 µM with HL-60 (read-out: IC50); more than 39.8 µM in the assay with HL-60 (read-out: pIC50 (converted)); more than 40 µM in the assay with SW480 (read-out: IC50); more than 39.8 µM in the assay with SW480 (read-out: pIC50 (converted)). Also, the IC50 in the assay with SMMC-7721 (read-out: IC50) was more than 40 µM; in the assay on SMMC-7721 (read-out: pIC50 (converted)) it was more than 39.8 µM; with A549 (read-out: IC50) it was more than 40 µM; with A549 (read-out: pIC50 (converted)), more than 39.8 µM.
With `C=C1[C@@H]2CC[C@H]3[C@@]45CO[C@](O)([C@@H](O)[C@@H]4C(C)(C)C=CC5=O)[C@]3(C2)[C@@H]1O` [MAOECRYSTAL C], the IC50 in the assay on MCF7 (read-out: IC50) was 14.4 µM; in the assay with MCF7 (read-out: pIC50 (converted)), 15.8 µM; with HL-60 (read-out: IC50), 18.9 µM; in the assay on HL-60 (read-out: pIC50 (converted)), 20 µM; with SW480 (read-out: IC50), 14.5 µM; with SW480 (read-out: pIC50 (converted)), 15.8 µM. For the same compound, the IC50 is more than 40 µM in the assay with SMMC-7721 (read-out: IC50), more than 39.8 µM with SMMC-7721 (read-out: pIC50 (converted)), more than 40 µM in the assay with A549 (read-out: IC50) and more than 39.8 µM with A549 (read-out: pIC50 (converted)).
With `C=C1C(=O)[C@]23C[C@H]1CC[C@H]2[C@]12CO[C@H](CC1=O)C(C)(C)C2=C(O)C3=O` [MAOECRYSTAL P], the IC50 is 1.8 µM in the assay with MCF7 (read-out: IC50); 2 µM in the assay on MCF7 (read-out: pIC50 (converted)); 1 µM in the assay on HL-60 (read-out: IC50); 1 µM in the assay on HL-60 (read-out: pIC50 (converted)); 2.1 µM in the assay on SW480 (read-out: IC50); 2 µM in the assay on SW480 (read-out: pIC50 (converted)). The IC50 in the assay on SMMC-7721 (read-out: IC50) was 2.8 µM; in the assay with SMMC-7721 (read-out: pIC50 (converted)), 2.51 µM; in the assay with A549 (read-out: IC50) it was 6.3 µM; in the assay on A549 (read-out: pIC50 (converted)), 6.31 µM.
